In patent publication US10131652B2, “Pyrimidinyloxy benzene derivatives as herbicides” (E. I. DU PONT DE NEMOURS AND COMPANY, priority 2014, dated 2018):

Assays:
Type in all cases: in vivo
kochia (Kochia scoparia) = test: Test B pre-/postemergence plant response; conditions: 1000 g ai/ha, 0 to 100 scale (0 no effect, 100 complete control)
In short: (§1)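 Seeds in loam–sand blend given preemergence soil spray; separately, plants at one- to two-leaf stage (2–10 cm) sprayed postemergence, compounds in non-phytotoxic solvent with surfactant. Injury rated visually versus untreated controls after ~10 days in greenhouse, 0 (no effect) to 100 (complete control).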

[1] = system: ragweed (common ragweed, Ambrosia elatior); test: Test B pre-/postemergence plant response; conditions: 1000 g ai/ha, 0 to 100 scale (0 no effect, 100 complete control)
In short: as §1

[2] = system: Italian ryegrass (Lolium multiflorum); test: Test B pre-/postemergence plant response; conditions: 1000 g ai/ha, 0 to 100 scale (0 no effect, 100 complete control)
In short: as §1

[3] = system: yellow nutsedge (Cyperus esculentus); test: Test D pre-/postemergence plant response; conditions: Postemergence
In short: (§2)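 Plants are held in a greenhouse 13 to 15 days after spraying, then injury is rated by eye relative to controls on a 0 to 100 scale. Treatments are preemergence on freshly sown loam/sand pots or postemergence at 1- to 4-leaf stage in peat-based medium; surfactant-containing solvent formulation.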

[4] = system: blackgrass (Alopecurus myosuroides); test: Test D pre-/postemergence plant response; conditions: Postemergence; for Plant response rating, Blackgrass: scale 0 to 100, 0 no effect, 100 complete control
In short: as §2

[5] = system: oilseed rape (Brassica napus); test: Test D pre-/postemergence plant response; conditions: Postemergence
In short: as §2

corn (Zea mays) = test: Test D pre-/postemergence plant response; conditions: Postemergence; for Plant response rating, Corn: scale 0 to 100, 0 no effect, 100 complete control
In short: as §2

[6] = system: ragweed (common ragweed, Ambrosia elatior); test: Test D pre-/postemergence plant response; conditions: Postemergence
In short: as §2

[7] = system: barnyardgrass (Echinochloa crus-galli); test: Test D pre-/postemergence plant response; conditions: Postemergence; for Plant response rating, Barnyardgrass: scale 0 to 100, 0 no effect, 100 complete control
In short: as §2

[8] = system: large (Lg) crabgrass (Digitaria sanguinalis); test: Test D pre-/postemergence plant response; conditions: Postemergence; for Plant response rating, Crabgrass, Large: scale 0 to 100, 0 no effect, 100 complete control
In short: as §2

[9] = system: pigweed (Amaranthus retroflexus); test: Test D pre-/postemergence plant response; conditions: Postemergence
In short: as §2

[10] = system: giant foxtail (Setaria faberii); test: Test D pre-/postemergence plant response; conditions: Postemergence; for Plant response rating, Foxtail, Giant: scale 0 to 100, 0 no effect, 100 complete control
In short: as §2

[11] = system: Italian ryegrass (Lolium multiflorum); test: Test D pre-/postemergence plant response; conditions: Postemergence
In short: as §2

[12] = system: galium (catchweed bedstraw, Galium aparine); test: Test D pre-/postemergence plant response; conditions: Postemergence; for Plant response rating, Galium: scale 0 to 100, 0 no effect, 100 complete control
In short: as §2

[13] = 31 g ai/ha, scale 0 to 100 (0 no effect, 100 complete control)
[14] = 62 g ai/ha, scale 0 to 100, 0 no effect, 100 complete control
[15] = 125 g ai/ha, scale 0 to 100, 0 no effect, 100 complete control

Clc1cnc(Oc2ccccc2-c2cc(Cl)sn2)nc1 [Compound 192]
Plant response rating, Kochia (kochia (Kochia scoparia); Postemergence): 100 | Plant response rating, Kochia (kochia (Kochia scoparia); Preemergence): 100 | Plant response rating, Ragweed ([1]; Postemergence): 60 | Plant response rating, Ragweed ([1]; Preemergence): 20 | Plant response rating, Ryegrass, Italian ([2]; Postemergence): 50 | Plant response rating, Ryegrass, Italian ([2]; Preemergence): 50 | Plant response rating (scale 0 to 100), Nutsedge, Yellow ([3]; 16 g ai/ha): 0 | Nutsedge, Yellow plant response rating [3, 13]: 5 | Nutsedge, Yellow plant response rating [3, 14]: 0 | Plant response rating, Nutsedge, Yellow [3, 15]: 5 | Plant response rating (scale 0 to 100), Blackgrass ([4]; 16 g ai/ha): 0 | Blackgrass plant response rating [4, 13]: 0 | Plant response rating, Blackgrass ([4]; 62 g ai/ha): 0 | Plant response rating, Blackgrass ([4]; 125 g ai/ha): 5 | Plant response rating (scale 0 to 100), Oilseed Rape ([5]; 16 g ai/ha): 0 | Oilseed Rape plant response rating [5, 13]: 0 | Oilseed Rape plant response rating [5, 14]: 5 | Plant response rating, Oilseed Rape [5, 15]: 50 | Plant response rating (scale 0 to 100), Corn (corn (Zea mays); 16 g ai/ha): 0 | Corn plant response rating (corn (Zea mays); [13]): 0 | Plant response rating, Corn (corn (Zea mays); 62 g ai/ha): 5 | Plant response rating, Corn (corn (Zea mays); 125 g ai/ha): 10 | Plant response rating (scale 0 to 100), Ragweed ([6]; 16 g ai/ha): 0 | Ragweed plant response rating [6, 13]: 5 | Ragweed plant response rating [6, 14]: 15 | Plant response rating, Ragweed [6, 15]: 45 | Plant response rating (scale 0 to 100), Barnyardgrass ([7]; 16 g ai/ha): 5 | Barnyardgrass plant response rating [7, 13]: 5 | Plant response rating, Barnyardgrass ([7]; 62 g ai/ha): 5 | Plant response rating, Barnyardgrass ([7]; 125 g ai/ha): 5 | Plant response rating (scale 0 to 100), Crabgrass, Large ([8]; 16 g ai/ha): 5 | Crabgrass, Large plant response rating [8, 13]: 5 | Plant response rating, Crabgrass, Large ([8]; 62 g ai/ha): 10 | Plant response rating, Crabgrass, Large ([8]; 125 g ai/ha): 10 | Plant response rating (scale 0 to 100), Pigweed ([9]; 16 g ai/ha): 15 | Pigweed plant response rating [9, 13]: 20 | Pigweed plant response rating [9, 14]: 55 | Plant response rating, Pigweed [9, 15]: 55 | Plant response rating (scale 0 to 100), Foxtail, Giant ([10]; 16 g ai/ha): 10 | Foxtail, Giant plant response rating [10, 13]: 25 | Plant response rating, Foxtail, Giant ([10]; 62 g ai/ha): 25 | Plant response rating, Foxtail, Giant ([10]; 125 g ai/ha): 15 | Plant response rating (scale 0 to 100), Ryegrass, Italian ([11]; 16 g ai/ha): 0 | Ryegrass, Italian plant response rating [11, 13]: 0 | Ryegrass, Italian plant response rating [11, 14]: 0 | Plant response rating, Ryegrass, Italian [11, 15]: 0 | Plant response rating (scale 0 to 100), Galium ([12]; 16 g ai/ha): 35 | Galium plant response rating [12, 13]: 50 | Plant response rating, Galium ([12]; 62 g ai/ha): 50 | Plant response rating, Galium ([12]; 125 g ai/ha): 50
